Experiments:
late watergrass [1] = experiment: Test Example 1: herbicidal activity, application before weed generation under submerged conditions (Table 16, symbol A); assay type: in vivo, late watergrass (Echinochloa oryzicola); conditions: 320 g/ha applied herbicide
Procedure, shortened: (§1)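 Alluvial soil was flooded to 4 cm depth, weed seeds were sown mixed and 2.5-leaf rice seedlings were transplanted. On sowing day, the compound's emulsion, diluted in water to a set dose, was applied to the water surface. Plants grew at 25–30 °C and were scored 0–5 after three weeks.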

Japanese bulrush [2] = experiment: Test Example 1: herbicidal activity, application before weed generation under submerged conditions (Table 16, symbol B); assay type: in vivo, Japanese bulrush (Schoenoplectus juncoides); conditions: 320 g/ha applied herbicide
Procedure, shortened: as §1

oval-leafed pondweed [3] = experiment: Test Example 1: herbicidal activity, application before weed generation under submerged conditions (Table 16, symbol C); assay type: in vivo, oval-leafed pondweed (Monochoria vaginalis); conditions: 320 g/ha applied herbicide
Procedure, shortened: as §1

late watergrass [4] = experiment: Test Example 2: herbicidal activity, application during weed generation under submerged conditions (Table 17, symbol A); assay type: in vivo, late watergrass (Echinochloa oryzicola); conditions: AAH 320 g/ha; application during weed generation, submerged conditions
Procedure, shortened: (§2)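 Steps: fill Wagner pots with alluvial soil; add water to give 4 cm depth; sow the species mixed; grow under glass at 25–30° C.; at 1–2 leaves apply water-diluted emulsion formulation to the water surface at a fixed herbicide amount; score after 3 weeks.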

Japanese bulrush [5] = experiment: Test Example 2: herbicidal activity, application during weed generation under submerged conditions (Table 17, symbol B); assay type: in vivo, Japanese bulrush (Schoenoplectus juncoides); conditions: AAH 320 g/ha; application during weed generation, submerged conditions
Procedure, shortened: as §2

oval-leafed pondweed [6] = experiment: Test Example 2: herbicidal activity, application during weed generation under submerged conditions (Table 17, symbol C); assay type: in vivo, oval-leafed pondweed (Monochoria vaginalis); conditions: AAH 320 g/ha; application during weed generation, submerged conditions
Procedure, shortened: as §2

barnyard grass [7] = experiment: Test Example 3: herbicidal effect by foliage application, Wagner pot (Table 18, symbol H); assay type: in vivo, barnyard grass (Echinochloa crus-galli); conditions: amount of applied herbicide 320 g/ha
Procedure, shortened: (§3)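 Plants were sown in alluvial soil held under 0.1–0.5 cm standing water and grown 14 days in a greenhouse at 25–30 °C. An emulsifiable formulation, water-diluted to the set dose, was then sprayed onto the foliage, and effects were scored three weeks later using previously defined criteria.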

Chinese sprangletop = experiment: Test Example 3: herbicidal effect by foliage application, Wagner pot (Table 18, symbol D); assay type: in vivo, chinese sprangletop (Leptochloa chinensis); conditions: amount of applied herbicide 320 g/ha
Procedure, shortened: as §3

rice flat sedge = experiment: Test Example 3: herbicidal effect by foliage application, Wagner pot (Table 18, symbol E); assay type: in vivo, rice flat sedge (Cyperus iria); conditions: amount of applied herbicide 320 g/ha
Procedure, shortened: as §3

southern crabgrass = experiment: Test Example 4: herbicidal effect by soil treatment (Table 19, symbol F); assay type: in vivo, southern crabgrass (Digitaria ciliaris); conditions: amount of applied herbicide 320 g/ha
Procedure, shortened: (§4)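 Applied as a water-diluted emulsion, the compound was sprayed onto soil covering newly sown seeds. Evaluation came three weeks after application, in a greenhouse held at 25° C. to 30° C.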

green foxtail = experiment: Test Example 4: herbicidal effect by soil treatment (Table 19, symbol G); assay type: in vivo, green foxtail (Setaria viridis); conditions: amount of applied herbicide 320 g/ha
Procedure, shortened: as §4

barnyard grass [8] = experiment: Test Example 4: herbicidal effect by soil treatment (Table 19, symbol H); assay type: in vivo, barnyard grass (Echinochloa crus-galli); conditions: amount of applied herbicide 320 g/ha
Procedure, shortened: as §4

wild oat = experiment: Test Example 4: herbicidal effect by soil treatment (Table 19, symbol I); assay type: in vivo, wild oat (Avena fatua); conditions: amount of applied herbicide 320 g/ha
Procedure, shortened: as §4

blackgrass = experiment: Test Example 4: herbicidal effect by soil treatment (Table 19, symbol J); assay type: in vivo, blackgrass (Alopecurus myosuroides); conditions: amount of applied herbicide 320 g/ha
Procedure, shortened: as §4

Italian ryegrass = experiment: Test Example 4: herbicidal effect by soil treatment (Table 19, symbol K); assay type: in vivo, Italian ryegrass (Lolium multiflorum); conditions: amount of applied herbicide 320 g/ha
Procedure, shortened: as §4

windgrass = experiment: Test Example 4: herbicidal effect by soil treatment (Table 19, symbol L); assay type: in vivo, windgrass (Apera spica-venti); conditions: amount of applied herbicide 320 g/ha
Procedure, shortened: as §4

velvetleaf = experiment: Test Example 4: herbicidal effect by soil treatment (Table 19, symbol M); assay type: in vivo, velvetleaf (Abutilon theophrasti); conditions: amount of applied herbicide 320 g/ha
Procedure, shortened: as §4

redroot pigweed = experiment: Test Example 4: herbicidal effect by soil treatment (Table 19, symbol N); assay type: in vivo, redroot pigweed (Amaranthus retroflexus); conditions: amount of applied herbicide 320 g/ha
Procedure, shortened: as §4

lambsquarters = experiment: Test Example 4: herbicidal effect by soil treatment (Table 19, symbol O); assay type: in vivo, lambsquarters (Chenopodium album); conditions: amount of applied herbicide 320 g/ha
Procedure, shortened: as §4

chickweed = experiment: Test Example 4: herbicidal effect by soil treatment (Table 19, symbol P); assay type: in vivo, common chickweed (Stellaria media); conditions: amount of applied herbicide 320 g/ha
Procedure, shortened: as §4

persian speedwell = experiment: Test Example 4: herbicidal effect by soil treatment (Table 19, symbol R); assay type: in vivo, Persian speedwell (Veronica persica); conditions: amount of applied herbicide 320 g/ha
Procedure, shortened: as §4

CCCC(=O)Oc1c(C)nn(C)c(=O)c1-c1c(-c2ccc(Cl)cc2F)sc2ccc(F)cc12 [2-349]
Herbicidal effect on A: late watergrass (grade 0-5) (late watergrass [1]): 3 (Herbicidal rate of 40% or more and less than 70%) | Herbicidal effect on B: Japanese bulrush (grade 0-5) (Japanese bulrush [2]): 0 (Herbicidal rate of 5% or less (almost no effect)) | Herbicidal effect on C: oval-leafed pondweed (grade 0-5) (oval-leafed pondweed [3]): 0 (Herbicidal rate of 5% or less (almost no effect)) | herbicidal effect rating, A: late watergrass (late watergrass [4]): 3 (Herbicidal rate of 40% or more and less than 70%) | herbicidal effect rating, B: Japanese bulrush (Japanese bulrush [5]): 3 (Herbicidal rate of 40% or more and less than 70%) | herbicidal effect rating, C: oval-leafed pondweed (oval-leafed pondweed [6]): 3 (Herbicidal rate of 40% or more and less than 70%) | herbicidal effect on H: barnyard grass (barnyard grass [7]): 5 (Herbicidal rate of 90% or more (almost completely withered)) | herbicidal effect on D: Chinese sprangletop (Chinese sprangletop): 5 (Herbicidal rate of 90% or more (almost completely withered)) | herbicidal effect on E: rice flat sedge (rice flat sedge): 4 (Herbicidal rate of 70% or more and less than 90%) | herbicidal effect on F: southern crabgrass (southern crabgrass): 0 (Herbicidal rate of 5% or less (almost no effect)) | herbicidal effect on G: green foxtail (green foxtail): 0 (Herbicidal rate of 5% or less (almost no effect)) | herbicidal effect on H: barnyard grass (barnyard grass [8]): 0 (Herbicidal rate of 5% or less (almost no effect)) | herbicidal effect on I: wild oat (wild oat): 0 (Herbicidal rate of 5% or less (almost no effect)) | herbicidal effect on J: blackgrass (blackgrass): 0 (Herbicidal rate of 5% or less (almost no effect)) | herbicidal effect on K: Italian ryegrass (Italian ryegrass): 4 (Herbicidal rate of 70% or more and less than 90%) | herbicidal effect on L: windgrass (windgrass): 0 (Herbicidal rate of 5% or less (almost no effect)) | herbicidal effect on M: velvetleaf (velvetleaf): 0 (Herbicidal rate of 5% or less (almost no effect)) | herbicidal effect on N: redroot pigweed (redroot pigweed): 0 (Herbicidal rate of 5% or less (almost no effect)) | herbicidal effect on O: lambsquarters (lambsquarters): 0 (Herbicidal rate of 5% or less (almost no effect)) | herbicidal effect on P: chickweed (chickweed): 3 (Herbicidal rate of 40% or more and less than 70%) | herbicidal effect on R: persian speedwell (persian speedwell): 4 (Herbicidal rate of 70% or more and less than 90%)

— US20230085307A1, “PYRIDAZINONE COMPOUND AND HERBICIDE” (NISSAN CHEMICAL CORPORATION, priority 2019, published 2023)
